# Experimental data reported in patent publication US20040209315A1, “Methods to identify agents that increase or decrease UBP43 activity and methods for use of such agents” (priority 2003, published 2004).
# Experiments:
# [1] = system: UBP43± and UBP43−/− bone marrow cells; experiment: Liquid bone marrow cell culture, Trypan blue dye exclusion assay; type: cell-based, mice; settings: 10 ng/ml, 48 hours
# Method: (a) Bone marrow cells isolated from UBP43+/+ and UBP43−/− mice were cultured in vitro in the presence or the absence of INFβ (100 units/ml) for 48 hours. TUNEL assay was performed to study the percentage of apoptosis cells. […] Cells were then subjected to Trypan blue dye exclusion assay. Each data point represents the mean of three independent experiments. Error bar represents standard deviation about the mean.
# In vitro bone marrow cell culture.
# TNFα and the type II IFN-IFNγ are commonly used to study bone marrow cell growth and apoptosis and in the analysis of various knockout mouse models.
# [2] = system: UBP43+/+ and UBP43−/− mice; experiment: Hematopoietic cell counting (peripheral white blood cells, bone marrow nucleated cells) after poly(I—C) injection; type: in vivo
# Method: (§1) (a) Seven mice of each group (UBP43 +/+ and UBP43−/−) were ip injected daily with poly(I—C). Viability was monitored daily. (b) UBP43+/+ and UBP43−/− mice (n=4 for each group) were ip injected daily with poly(I—C). The total number of white blood cells (WEC) in the peripheral blood was counted daily after each poly(I—C) injection. (c) UBP43+/+ and UBP43−/− mice (n=5 for each group) were either left untreated or were ip injected with poly(I—C) 24 h prior to bone marrow extraction. Bone marrow cells were counted in control and poly(I—C) injected group of mice (two femurs from each mouse).
# (§2) Poly(I—C) injection and hematopoietic cell counting: Poly(I—C) (Sigma) was dissolved in phosphate buffered saline and intraperitoneally (ip) injected to mice at 5 μg/g body weight (gbw). Blood and bone marrow nucleated cells were counted in Turk solution (3% acetic acid and 0.01% crystal violet in H2O).
# (§3) UBP43-null mice are sensitive to potent IFN-inducer poly(I—C). Injection with synthetic double stranded RNA-polyinosinic acid-polycytidylic acid (poly(I—C)) has been commonly used to induce endogenous IFN production in mice. […] There were dramatic decreases (over 90%) in the total number of white blood cells in peripheral blood and nucleated cells in bone marrow of UBP43−/− mice.
# [3] = system: UBP43+/+ and UBP43−/− mice; experiment: Viability of mice after daily ip poly(I—C) injection; type: in vivo; settings: daily ip poly(I—C) 5 μg/g body weight
# Method: as §1, §2, §3
# [4] = system: hematopoietic cells transplanted from UBP43+/+ or UBP43−/− mice; experiment: Bone marrow transplantation, flow cytometric analysis of CD45.2+ donor blood cells before and after poly(I—C) injection; type: in vivo
# Excerpt: (a) Hematopoietic cells transplanted from UBP43−/− mice to UBP43+/+ congenic strain mice are hypersensitive to poly(I—C) injection. Bone marrow cells (CD45.2+) from individual UBP43+/+ and UBP43−/− mice (n=4 for each group) were isolated and transplanted to lethally irradiated congenic strain mice (CD45.2−). Six months after the transplantation, flow cytometric analysis was done to determine the relative amount of peripheral blood cells contributed from the donor or recipient mice based on CD45-2 immunostaining before and after poly(I—C) injection (48 h). Flow cytometric analysis results from one representative mouse transplanted with UBP43+/+ or UBP43−/− bone marrow are presented. (b) UBP43−/− bone marrow cells are hypersensitive to IFNβ treatment. Bone marrow cells from UBP43+/+ and UBP43−/− mice were cultured at 2×10^4 cells/ml in CFU assay medium in the presence of various concentrations of IFNβ. Total colony number was counted after 12 days of culture. Results of a single representative experiment of two independent experiments are shown. […]
# Bone marrow transplantation. […] The appearance of donor origin blood cells (CD45.2+) was detected by flow cytometric analysis with […] (FITC) conjugated CD45.2 antibodies (BD Biosciences). […]
Substance,difference in cell death between UBP43± cells and UBP43−/− cells [1],"decrease in number of total peripheral white blood cells ([2]; UBP43+/+ mice, ip poly(I—C))","decrease in total bone marrow nucleated cells ([2]; UBP43+/+ mice, ip poly(I—C) 24 h prior to bone marrow extraction)","decrease in total number of white blood cells in peripheral blood ([2]; UBP43−/− mice, ip poly(I—C))","decrease in nucleated cells in bone marrow ([2]; UBP43−/− mice, ip poly(I—C) 24 h prior to bone marrow extraction)",viability ([3]; UBP43+/+ mice (n=7)),time within which all mice died post treatment ([3]; UBP43−/− mice (n=7)),"relative amount of CD45.2+ cells in the peripheral blood ([4]; UBP43+/+ donor, 48 h after poly(I—C) injection)","blood cells of the UBP43−/− genotype (CD45.2+) ([4]; UBP43−/− donor, 48 hours post administration, 79% before dosing)"
"IFNγ: type II IFN, proapoptotic cytokine (Peprotech)",did not cause a significant difference,–,–,–,–,–,–,–,–
polyinosinic acid-polycytidylic acid [poly(I—C)],–,20%,30%,over 90%,over 90%,survived the course of treatment,≤ 72 h,did not change,12%
TNF-α,did not cause a significant difference,–,–,–,–,–,–,–,–
